Experimental data taken from patent US11419869B2, “Dosage forms and regimens for amino acid compounds” (Pliant Therapeutics, Inc., priority 2019, dated 2022).

Target: recombinant human integrin αvβ6 (Homo sapiens (Human), UniProt P06756+P18564)
Assay: Solid Phase Integrin αvβ6 Binding Assay (Examples B1, B2)
Conditions: TGFβ1 LAP ligand, values given in four ranges, read-out: αvβ6 Inhibition IC50 (nM)-range
Experimental: (§1) Microplates were coated with recombinant human integrin αvβ6 (2 μg/mL) in PBS (100 μL/well 25° C., overnight). The coating solution was removed, washed with wash buffer (0.05% Tween 20; 0.5 mM MnCl2; in 1×TBS). The plate was blocked with 200 μL/well of Block Buffer (1% BSA; 5% sucrose; 0.5 mM MnCl2; in 1×TBS) at 37° C. for 2 h. Dilutions of testing compounds and recombinant TGFβ1 LAP (0.67 μg/mL) in binding buffer (0.05% BSA; 2.5% sucrose; 0.5 mM MnCl2; in 1×TBS) were added. The plate was incubated for 2 hours at 25° C., washed, and incubated for 1 hour with Biotin-Anti-hLAP. Bound antibody was detected by peroxidase-conjugated streptavidin. The IC50 values for testing compounds were calculated by four-parameter logistic regression.
The compounds tested were compound samples prepared according to procedures described in the Synthetic Examples section, with the stereochemical purity as indicated in the Examples.
as §1, with “A third series of exemplary compounds was selected for testing in the solid phase integrin αvβ6 binding assay. The compounds tested were compound samples prepared according to procedures described in the Synthetic Examples section, with the stereochemical purity as indicated in the Examples. As in Example B1, microplates were coated” for “Microplates were coated”, “calculated by a four-parameter logistic” for “calculated by four-parameter logistic”

recombinant human integrin αvβ6, sequence (P06756 31-992): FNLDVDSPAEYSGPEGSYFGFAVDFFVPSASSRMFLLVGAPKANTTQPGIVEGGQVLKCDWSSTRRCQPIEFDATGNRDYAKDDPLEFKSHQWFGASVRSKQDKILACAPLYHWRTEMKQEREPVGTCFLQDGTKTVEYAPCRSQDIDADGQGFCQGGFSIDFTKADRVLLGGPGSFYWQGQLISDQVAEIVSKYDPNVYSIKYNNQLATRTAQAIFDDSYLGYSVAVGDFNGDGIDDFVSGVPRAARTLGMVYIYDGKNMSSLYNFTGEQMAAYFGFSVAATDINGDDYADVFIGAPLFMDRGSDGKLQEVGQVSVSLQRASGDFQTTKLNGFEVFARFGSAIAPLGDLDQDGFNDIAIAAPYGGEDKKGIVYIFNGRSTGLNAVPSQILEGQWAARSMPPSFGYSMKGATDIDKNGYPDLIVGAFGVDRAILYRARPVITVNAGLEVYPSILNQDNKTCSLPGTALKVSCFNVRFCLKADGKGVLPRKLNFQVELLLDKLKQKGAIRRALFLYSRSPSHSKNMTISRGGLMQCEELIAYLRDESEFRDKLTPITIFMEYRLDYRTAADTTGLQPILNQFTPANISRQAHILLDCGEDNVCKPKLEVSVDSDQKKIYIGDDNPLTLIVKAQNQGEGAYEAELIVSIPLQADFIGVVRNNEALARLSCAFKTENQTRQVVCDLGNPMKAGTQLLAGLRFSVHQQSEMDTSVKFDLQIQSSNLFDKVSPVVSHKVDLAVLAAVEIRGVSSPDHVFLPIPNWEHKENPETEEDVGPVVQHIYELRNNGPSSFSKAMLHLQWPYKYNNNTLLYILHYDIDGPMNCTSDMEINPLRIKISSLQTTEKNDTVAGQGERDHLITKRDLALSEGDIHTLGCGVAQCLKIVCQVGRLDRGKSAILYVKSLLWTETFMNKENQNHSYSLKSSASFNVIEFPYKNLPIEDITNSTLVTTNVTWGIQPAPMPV
recombinant human integrin αvβ6, sequence (P18564 22-707): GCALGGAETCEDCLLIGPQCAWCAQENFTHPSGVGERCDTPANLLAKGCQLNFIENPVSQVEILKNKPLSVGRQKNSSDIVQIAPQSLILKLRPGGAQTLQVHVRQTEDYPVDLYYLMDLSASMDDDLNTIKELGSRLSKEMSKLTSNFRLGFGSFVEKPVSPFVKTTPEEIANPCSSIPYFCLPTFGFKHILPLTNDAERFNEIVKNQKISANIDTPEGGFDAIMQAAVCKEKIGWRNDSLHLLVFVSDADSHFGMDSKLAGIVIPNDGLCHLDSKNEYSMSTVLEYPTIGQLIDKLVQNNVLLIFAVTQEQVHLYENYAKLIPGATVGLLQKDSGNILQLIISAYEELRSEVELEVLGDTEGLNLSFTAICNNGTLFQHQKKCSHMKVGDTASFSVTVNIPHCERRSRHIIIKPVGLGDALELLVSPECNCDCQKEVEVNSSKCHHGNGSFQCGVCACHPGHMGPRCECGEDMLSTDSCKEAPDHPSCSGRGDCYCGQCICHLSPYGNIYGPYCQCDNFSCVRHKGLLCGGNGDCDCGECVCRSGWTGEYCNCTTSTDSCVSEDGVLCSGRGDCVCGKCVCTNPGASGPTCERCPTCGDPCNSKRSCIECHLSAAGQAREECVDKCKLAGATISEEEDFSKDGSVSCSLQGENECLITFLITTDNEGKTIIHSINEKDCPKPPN

| SMILES | IC50 [nM] |
| --- | --- |
| CO[C@H](C)CN(CCCCc1ccc2c(n1)NCCC2)CC[C@H](Nc1ncc(C#N)cn1)C(=O)O [Compound 68, (S)-2-((5-cyanopyrimidin-2-yl)amino)-4-(((R)-2-methoxypropyl) (4-(5,6,7,8-tetrahydro-1,8-naphthyridin-2-yl)butyl)amino) butanoic acid] | < 50 |
| Cc1nc(N[C@@H](CCN(CCCCc2ccc3c(n2)NCCC3)CCOc2cncc(F)c2)C(=O)O)c2ccc(F)cc2n1 [Compound 61, (S)-2-((7-fluoro-2-methylquinazolin-4-yl)amino)-4-((2-((5-fluoropyridin-3-yl)oxy)ethyl) (4-(5,6,7,8-tetrahydro-1,8-naphthyridin-2-yl)butyl)amino) butanoic acid] | < 50 |
| CO[C@H](C)CN(CCCCc1ccc2c(n1)NCCC2)CC[C@H](Nc1nccnc1C#N)C(=O)O [Compound 76, (S)-2-((3-cyanopyrazin-2-yl)amino)-4-(((R)-2-methoxypropyl) (4-(5,6,7,8-tetrahydro-1,8-naphthyridin-2-yl)butyl)amino) butanoic acid] | < 50 |
| O=C(O)[C@H](CCN(CCCCc1ccc2c(n1)NCCC2)CC(F)F)Nc1cc(-c2ccccc2)ncn1 [Compound 142, (S)-4-((2,2-difluoroethyl) (4-(5,6,7,8-tetrahydro-1,8-naphthyridin-2-yl)butyl)amino)-2-((6-phenylpyrimidin-4-yl)amino) butanoic acid] | > 1000 |
| O=C(O)[C@H](CCN(CCCCc1ccc2c(n1)NCCC2)CC(F)F)Nc1ccncn1 [Compound 120, (S)-4-((2,2-difluoroethyl) (4-(5,6,7,8-tetrahydro-1,8-naphthyridin-2-yl)butyl)amino)-2-(pyrimidin-4-ylamino) butanoic acid] | > 1000 |
| CS(=O)(=O)CCN(CCCCc1ccc2c(n1)NCCC2)CC[C@H](Nc1ncc(Br)cn1)C(=O)O [Compound 103, (S)-2-((5-bromopyrimidin-2-yl)amino)-4-((2-(methylsulfonyl)ethyl) (4-(5,6,7,8-tetrahydro-1,8-naphthyridin-2-yl)butyl)amino) butanoic acid] | > 1000 |
| N#Cc1cnc(N[C@@H](CCN(CCCCc2ccc3c(n2)NCCC3)CCOc2ccc(F)cc2)C(=O)O)nc1 [Compound 138, (S)-2-((5-cyanopyrimidin-2-yl)amino)-4-((2-(4-fluorophenoxy)ethyl) (4-(5,6,7,8-tetrahydro-1,8-naphthyridin-2-yl)butyl)amino) butanoic acid] | < 50 |
| O=C(O)[C@H](CCN(CCCCc1ccc2c(n1)NCCC2)CCOc1ccc(F)cc1)Nc1ncc(C(F)(F)F)cn1 [Compound 139, (S)-4-((2-(4-fluorophenoxy)ethyl) (4-(5,6,7,8-tetrahydro-1,8-naphthyridin-2-yl)butyl)amino)-2-((5-(trifluoromethyl)pyrimidin-2-yl)amino) butanoic acid] | < 50 |
| O=C(O)[C@H](CCN(CCCCc1ccc2c(n1)NCCC2)CCOc1ccccc1)Nc1ncc(Br)cn1 [Compound 83, (S)-2-((5-bromopyrimidin-2-yl)amino)-4-((2-phenoxyethyl) (4-(5,6,7,8-tetrahydro-1,8-naphthyridin-2-yl)butyl)amino) butanoic acid] | < 50 |
| CO[C@H](C)CN(CCCCc1ccc2c(n1)NCCC2)CC[C@H](Nc1cc(-n2cccn2)ncn1)C(=O)O [Compound 77, (S)-2-((6-(1H-pyrazol-1-yl)pyrimidin-4-yl)amino)-4-(((R)-2-methoxypropyl) (4-(5,6,7,8-tetrahydro-1,8-naphthyridin-2-yl)butyl)amino) butanoic acid] | < 50 |

Second part, the compound after the results:

| IC50 [nM] | SMILES |
| --- | --- |
| < 50 | COC[C@@H](F)CN(CCCCc1ccc2c(n1)NCCC2)CC[C@H](Nc1nc(C)nc2ccccc12)C(=O)O [Compound 46, (S)-4-(((S)-2-fluoro-3-methoxypropyl) (4-(5,6,7,8-tetrahydro-1,8-naphthyridin-2-yl)butyl)amino)-2-((2-methylquinazolin-4-yl)amino) butanoic acid] |
| < 50 | CO[C@H](C)CN(CCCCc1ccc2c(n1)NCCC2)CC[C@H](Nc1cc(-c2ccccc2)ncn1)C(=O)O [Compound 80, (S)-4-(((R)-2-methoxypropyl) (4-(5,6,7,8-tetrahydro-1,8-naphthyridin-2-yl)butyl)amino)-2-((6-phenylpyrimidin-4-yl)amino) butanoic acid] |
| < 50 | O=C(O)[C@H](CCN(CCCCc1ccc2c(n1)NCCC2)CCOc1cncc(F)c1)Nc1ncnc2cccnc12 [Compound 60, (S)-4-((2-((5-fluoropyridin-3-yl)oxy)ethyl) (4-(5,6,7,8-tetrahydro-1,8-naphthyridin-2-yl)butyl)amino)-2-(pyrido[3,2-d]pyrimidin-4-ylamino) butanoic acid] |
| < 50 | CS(=O)(=O)CCN(CCCCc1ccc2c(n1)NCCC2)CC[C@H](Nc1ncnc2ccccc12)C(=O)O [Compound 27, (S)-4-((2-(methylsufonyl)ethyl) (4-(5,6,7,8-tetrahydro-1,8-naphthyridin-2-yl)butyl)amino)-2-(quinazolin-4-ylamino) butanoic acid] |
| < 50 | COC[C@@H](F)CN(CCCCc1ccc2c(n1)NCCC2)CC[C@H](Nc1nc(-c2cccnc2)nc2ccccc12)C(=O)O [Compound 109, (S)-4-(((S)-2-fluoro-3-methoxypropyl) (4-(5,6,7,8-tetrahydro-1,8-naphthyridin-2-yl)butyl)amino)-2-((2-(pyridin-3-yl)quinazolin-4-yl)amino) butanoic acid] |
| < 50 | Cn1ncc2c(N[C@@H](CCN(CCCCc3ccc4c(n3)NCCC4)CCOc3ccccc3)C(=O)O)ncnc21 [Compound 82, (S)-2-((1-methyl-1H-pyrazolo[3,4-d]pyrimidin-4-yl)amino)-4-((2-phenoxyethyl) (4-(5,6,7,8-tetrahydro-1,8-naphthyridin-2-yl)butyl)amino) butanoic acid] |
| < 50 | Cc1cc(C)n(CCN(CCCCc2ccc3c(n2)NCCC3)CC[C@H](Nc2ncnc3ccccc23)C(=O)O)n1 [Compound 45, (S)-4-((2-(3,5-dimethyl-1H-pyrazol-1-yl)ethyl) (4-(5,6,7,8-tetrahydro-1,8-naphthyridin-2-yl)butyl)amino)-2-(quinazolin-4-ylamino) butanoic acid] |
| < 50 | O=C(O)[C@H](CCN(CCCCc1ccc2c(n1)NCCC2)CCOc1cncc(F)c1)Nc1ncnc2ccccc12 [Compound 58, (S)-4-((2-((5-fluoropyridin-3-yl)oxy)ethyl) (4-(5,6,7,8-tetrahydro-1,8-naphthyridin-2-yl)butyl)amino)-2-(quinazolin-4-ylamino) butanoic acid] |
| < 50 | CC(=O)NCCN(CCCCc1ccc2c(n1)NCCC2)CC[C@H](Nc1ncnc2ccccc12)C(=O)O [Compound 63, (S)-4-((2-acetamidoethyl) (4-(5,6,7,8-tetrahydro-1,8-naphthyridin-2-yl)butyl)amino)-2-(quinazolin-4-ylamino) butanoic acid] |
| < 50 | COCCN(CCCCc1ccc2c(n1)NCCC2)CC[C@H](Nc1ncnc2ncccc12)C(=O)O [Compound 11, (S)-4-((2-methoxyethyl) (4-(5,6,7,8-tetrahydro-1,8-naphthyridin-2-yl)butyl)amino)-2-(pyrido[2,3-d]pyrimidin-4-ylamino) butanoic acid] |
| < 50 | COc1cccc2c(N[C@@H](CCN(CCCF)CCCCc3ccc4c(n3)NCCC4)C(=O)O)ncnc12 [Compound 43, (S)-4-((3-fluoropropyl) (4-(5,6,7,8-tetrahydro-1,8-naphthyridin-2-yl)butyl)amino)-2-((8-methoxyquinazolin-4-yl)amino) butanoic acid] |
| < 50 | Cn1ncc2c(N[C@@H](CCN(CCCCc3ccc4c(n3)NCCC4)CCOc3ccc(F)cc3)C(=O)O)ncnc21 [Compound 123, (S)-4-((2-(4-fluorophenoxy)ethyl) (4-(5,6,7,8-tetrahydro-1,8-naphthyridin-2-yl)butyl)amino)-2-((1-methyl-1H-pyrazolo[3,4-d]pyrimidin-4-yl)amino) butanoic acid] |
| < 50 | O=C(O)[C@H](CCN(CCO)CCCCc1ccc2c(n1)NCCC2)Nc1ncnc2ccccc12 [Compound 75, (S)-4-((2-hydroxyethyl) (4-(5,6,7,8-tetrahydro-1,8-naphthyridin-2-yl)butyl)amino)-2-(quinazolin-4-ylamino) butanoic acid] |
| > 1000 | Cn1ncc2c(N[C@@H](CCN(CCCCc3ccc4c(n3)NCCC4)CC(F)F)C(=O)O)ncnc21 [Compound 88, (S)-4-((2,2-difluoroethyl) (4-(5,6,7,8-tetrahydro-1,8-naphthyridin-2-yl)butyl)amino)-2-((1-methyl-1H-pyrazolo[3,4-d]pyrimidin-4-yl)amino) butanoic acid] |
